Results from patent US10987059B2, “Electronic scaffold and uses thereof” (Ramot at Tel-Aviv University Ltd., priority 2013, dated 2021).

Tests used:
[1] = test system: neonatal rat ventricular cardiomyocytes; experiment: Action potentials recorded from the engineered (cyborg) tissue before and after adding a stimulating drug; format: cell-based; details: 100 nM in growth medium, 15 minutes incubation; single electrode; device with albumin fibrous scaffold; before vs after drug
Protocol: After the device was incubated for a time period that allows tissue generation, the obtained cyborg tissue was connected to the pre-amplifier and monitored through the computer, using a system as exemplified in FIG. 8. This allows monitoring the progress of tissue formation as well as studying the influence of different conditions and substances on the tissue, an approach that could replace animal drug testing and make it easier and simpler.
At the time of the recording, the device was connected to a ME64-FAI-MPA-System by multichannel systems (Germany). Action potentials were recorded using the MC rack software which allows recording over multiple electrodes simultaneously.
After action potentials were recorded, 100 nM of noradrenaline was added to the growth medium and the device was allowed to incubate for 15 minutes after which the device was reconnected and action potentials were again recorded.

[2] = Release profile of SSA from polypyrrole hydrogel scaffold upon voltage application; format: physicochemical; details: absorbance at 280 nm
Protocol: Pyrrole was […] in a 10-mL one-compartment cell, using an electrochemical workstation under computer control. The gold-based microelectrodes, prepared as described in Example 1 hereinabove, were used as working electrodes. The counter electrode was platinum wire and the reference electrode was a saturated calomel electrode (SCE). The electrolyte was an aqueous solution (100 ml) containing 0.2 M pyrrole (1.39 ml) and 0.2 M sulfosalicylic acid (5.08 grams), which was degassed by nitrogen stream before polymerization was effected. The SSA-doped PPy films (PPy-SSA) were prepared on the gold microelectrodes by galvanostatic polymerization using a current density of 2.5 mA/cm^2 for 800 seconds. The as-prepared PPy-SSA films were rinsed with de-ionized water and dried in air at room temperature. A second layer was thereafter deposited by using an aqueous solution (100 ml) of 0.2 M pyrrole and 0.1 M NaCl (0.5844 grams), subjected to a galvanostatic polymerization with a current density of 2 mA/cm^2 for 500 seconds.

[3] = poly(2-acrylamido-2-methylpropane sulfonic acid-co-n-butylmethacrylate) scaffold; PBS medium; optical density at 462
Protocol: The release profile of dopamine from device polymeric element made of a positive electro-responsive polymer as described herein was measured as follows:
Disc shaped preloaded slices of formed hydrogel (2-3 mm) were placed between two Graphite electrodes (1 cm apart) in a plastic culture plate. The electrodes were connected to a stimulus generator (STG-4002 multichannel systems, Germany), and the plate was filled with a medium of PBS (0.35 ml). A DC pulse of different intensities (0-8 volt) and different durations (0-15 minutes) was supplied.
Nano-Drop spectrophotometer (ND-1000 spectrophotometer, Thermo scientific, Wilmington Del. U.S.A) at a wave length of 462 was used to examine the light absorbance of the medium. The relation between the light absorbance and the concentration is given by Beer-Lambert as a linear equation: A=εlc
wherein A is the light absorbance, l is the length of the light through the sample [m], C is the concentration in [M], and ε is the molar absorptivity [m^−1M^−1].

In the case of `NC[C@H](O)c1ccc(O)c(O)c1` [Noradrenalin], the “frequency of the action potentials” value [1] was “increased”.

For `O=C(O)c1cc(S(=O)(=O)O)ccc1O` [SSA, Sulfosalicylic acid], the “drug release, voltage on vs off” value [2] was “When voltage is applied the drug is released into the polymer's vicinity and when voltage application is discontinued drug release ceases”.

In the case of `NCCc1ccc(O)c(O)c1` [dopamine], the “drug release rate, voltage on vs off” value [3] was “much higher drug release rate when voltage is applied (on) than when it is not applied (off)”.
